The source of these data is patent US20130040933A1, “AZAINDOLES AS JANUS KINASE INHIBITORS” (priority 2010, published 2013).

T1 sequence (P52333 822-1111 limits assumed): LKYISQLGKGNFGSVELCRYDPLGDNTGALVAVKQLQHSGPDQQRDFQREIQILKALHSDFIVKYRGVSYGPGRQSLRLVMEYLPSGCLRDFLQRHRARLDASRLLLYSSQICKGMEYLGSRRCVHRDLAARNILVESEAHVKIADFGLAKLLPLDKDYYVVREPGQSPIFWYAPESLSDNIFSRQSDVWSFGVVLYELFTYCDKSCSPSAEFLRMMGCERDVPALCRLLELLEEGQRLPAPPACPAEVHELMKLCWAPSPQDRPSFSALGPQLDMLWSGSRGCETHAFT

One experiment addresses T1, rhJAK3 (Homo sapiens, UniProt P52333).
T1 construct: recombinant purified GST-tagged catalytic domain for each enzyme; purchased Invitrogen PV3855
In words: JAK Biochemical HTRF Assay (JAK3). The settings on record: recombinant purified GST-tagged catalytic domain, HTRF format, [ATP] 1.7 μM; read-out: JAK3 IC50. The procedure: JAK Biochemical HTRF Assay Protocol
The ability of compounds to inhibit the activity of JAK1, JAK2, JAK3, and TYK2 was measured using a recombinant purified GST-tagged catalytic domain for each enzyme (Invitrogen JAK1 #PV4774, JAK2 #PV4210, JAK3 #PV3855, TYK2 #PV4790) in an HTRF format biochemical assay. The reactions employed a common peptide substrate, LCB-EQEDEPEGDYFEWLW-NH2. The basic assay protocol is as follows: First, […] of diluted compounds in DMSO were dispensed into the wells of a dry 384-well Black plate (Greiner #781076) using a Labcyte Echo 555 acoustic dispenser. Subsequent reagent additions employed a Thermo Multidrop Combi nL. Next, 10 μL of 2× enzyme and 2× substrate in 1× assay buffer (Invitrogen kinase buffer #PV3189, 2 mM DTT, 0.05% BSA) were added to the wells and preincubated for 30 min at room temperature to allow compound binding to equilibrate. After equilibration, 10 μl, of 2×ATP in 1× assay buffer was added to initiate the kinase reaction and the plates were incubated at room temperature for 120 min. At the end of the incubation, 20 μL of 2× stop buffer containing streptavidin-Dylight (Thermo #21845) and Eu-tagged pY20 antibody (Perkin Elmer #AD0067) was added to quench the reaction. Plates were further incubated 60 min at room temperature with shaking and then read on a Perkin Elmer Envision (λex=337 nm, λem=665 and 615 nm, TRF delay time=20 μs). HTRF signal=10,000*665 nm reading/615 nm reading. After normalization to untreated controls, the percent inhibition of the HTRF signal at each compound concentration was calculated. The plot of percent inhibition vs. the log of compound concentration was fit with a 4-parameter dose response equation to calculate IC50 values.
`C[C@@H](Nc1cncc(-c2c[nH]c3ncc(-c4cnc(N)nc4)cc23)n1)C(=O)NCC(F)(F)F` [Example 15-6, N^2-{6-[5-(2-aminopyrimidin-5-yl)-1H-pyrrolo[2,3-b]pyridin-3-yl]pyrazin-2-yl}-N-(2,2,2-trifluoroethyl)-D-alaninamide]: the half-inhibitory concentration (IC50) is at most 1 nM.
For `CC(c1cccc(-c2cnc3[nH]cc(-c4cncc(N[C@H](C)C(=O)NCC(F)(F)F)n4)c3c2)c1)N1CCCC1` (stereo partly drawn) [Example 15-11, N^2-(6-{5-[3-(1-pyrrolidin-1-ylethyl)-phenyl]-1H-pyrrolo[2,3-b]pyridin-3-yl}pyrazin-2-yl)-N-(2,2,2-trifluoroethyl)-D-alaninamide], the IC50 is at most 1 nM.
Consider `C[C@@H](Nc1cncc(-c2c[nH]c3ncc(-c4ccc(CC#N)nc4)cc23)n1)C(=O)NCC(F)(F)F` [Example 15-2, N^2-(6-{5-[6-(cyanomethyl)pyridin-3-yl]-1H-pyrrolo[2,3-b]pyridin-3-yl}-pyrazin-2-yl)-N-(2,2,2-trifluoroethyl)-D-alaninamide], for which the IC50 is at most 1 nM.
With `COCC#Cc1cnc2[nH]cc(-c3cncc(N[C@H](C)C(=O)NCC(F)(F)F)n3)c2c1` [Example 15-7, N^2-{6-[5-(3-methoxyprop-1-yn-1-yl)-1H-pyrrolo[2,3-b]pyridin-3-yl]pyrazin-2-yl}-N-(2,2,2-trifluoroethyl)-D-alaninamide], the IC50 was at most 1 nM.
On to `C[C@@H](Nc1cncc(-c2c[nH]c3ncc(-c4cccc(N5CCCC5)c4)cc23)n1)C(=O)NCC(F)(F)F` [Example 15-1, N^2-{6-[5-(3-pyrrolidin-1-ylphenyl)-1H-pyrrolo[2,3-b]pyridin-3-yl]pyrazin-2-yl}-N-(2,2,2-trifluoroethyl)-D-alaninamide], for which the concentration for half-maximal inhibition (IC50) was at most 1 nM.
On to `C[C@@H](Nc1cncc(-c2c[nH]c3ncc(C4=CCCOC4)cc23)n1)C(=O)NCC(F)(F)F` [Example 15-16, N^2-{6-[5-(5,6-dihydro-2H-pyran-3-yl)-1H-pyrrolo[2,3-b]pyridin-3-yl]pyrazin-2-yl}-N-(2,2,2-trifluoroethyl)-D-alaninamide], for which the IC50 is at most 1 nM.
In the case of `C[C@@H](Nc1cncc(-c2c[nH]c3ncc(-c4cncc(C#N)c4)cc23)n1)C(=O)NCC(F)(F)F` [Example 15-19, N^2-{6-[5-(5-cyanopyridin-3-yl)-1H-pyrrolo[2,3-b]pyridin-3-yl]pyrazin-2-yl}-N-(2,2,2-trifluoroethyl)-D-alaninamide], the IC50 was at most 1 nM.
In the case of `C[C@@H](Nc1cncc(-c2c[nH]c3ncc(-c4cccc(CN5CCOCC5)c4)cc23)n1)C(=O)NCC(F)(F)F` [Example 15-12, N^2-(6-{5-[3-(morpholin-4-yl-methyl)phenyl]-1H-pyrrolo[2,3-b]-pyridin-3-yl}pyrazin-2-yl)-N-(2,2,2-trifluoroethyl)-D-alaninamide], the 50% inhibitory concentration (IC50) was at most 1 nM.

The same experiment, now with this note: recombinant purified GST-tagged catalytic domain, HTRF format, [ATP] 1.7 μM; read-out: rhJAK3 IC50.
Regarding `C[C@@H](Nc1cncc(-c2c[nH]c3ncc(Cl)cc23)n1)C(=O)N1CCC(F)(F)CC1` [Example 2-12, 6-(5-chloro-1H-pyrrolo[2,3-b]-pyridin-3-yl)-N-[(1R)-2-(4,4-difluoropiperidin-1-yl)-1-methyl-2-oxoethyl]pyrazin-2-amine], the IC50 lay within 100 to 1000 nM.
The same measure, in the same setting: with `C[C@@H](Nc1cncc(-c2c[nH]c3ncc(Cl)cc23)n1)C(=O)NCC(F)(F)F` [Example 1, N^2-[6-(5-Chloro-1H-pyrrolo[2,3-b]pyridin-3-yl)pyrazin-2-yl]-N-(2,2,2-trifluoroethyl)-D-alaninamide] the figure was at most 1 nM; with `O=C(NCC(F)(F)F)[C@@H]1CCCN1c1cncc(-c2c[nH]c3ncc(Cl)cc23)n1` [Example 1-5, 1-[6-(5-chloro-1H-pyrrolo[2,3-b]pyridin-3-yl)-pyrazin-2-yl]-N-(2,2,2-trifluoroethyl)-L-prolinamide], 1 to 10 nM; with `C[C@@H](Nc1cncc(-c2c[nH]c3ncc(Cl)cc23)n1)C(=O)NCc1cccs1` [Example 2-10, N^2-[6-(5-chloro-1H-pyrrolo[2,3-b]-pyridin-3-yl)pyrazin-2-yl]-N-(thiophen-2-ylmethyl)-D-alaninamide], 100 to 1000 nM.
On to `C[C@@H](Nc1cncc(-c2c[nH]c3ncc(Cl)cc23)n1)C(=O)N[C@H](CO)Cc1ccc(O)cc1` [Example 2-18, N^2-[6-(5-chloro-1H-pyrrolo[2,3-b]-pyridin-3-yl)pyrazin-2-yl]-N-[(1S)-2-hydroxy-1-(4-hydroxybenzyl)-ethyl]-D-alaninamide], for which the IC50 lay in the range of 100 to 1000 nM.
For `O=C(NCC(F)(F)F)[C@@H]1CC[C@@H](Nc2cncc(-c3c[nH]c4ncc(Cl)cc34)n2)C1` [Example 1-1, (1R,3R)-3-{[6-(5-chloro-1H-pyrrolo[2,3-b]pyridin-3-yl)-pyrazin-2-yl]amino}-N-(2,2,2-trifluoroethyl)cyclopentane-carboxamide], the IC50 lay in the range of 1 to 10 nM.
Consider `O=C(NCCC(F)(F)F)C1(Oc2cncc(-c3c[nH]c4ncc(Cl)cc34)n2)CC1` [Example 6-3, 1-{[6-(5-chloro-1H-pyrrolo[2,3-b]pyridin-3-yl)pyrazin-2-yl]oxy}-N-(3,3,3-trifluoro-propyl)cyclopropanecarboxamide], for which the IC50 was 100 to 1000 nM.
Same read-out and setting: the same measure for `C[C@]1(C(=O)NCC(F)(F)F)CCN1c1cncc(-c2c[nH]c3ncc(Cl)cc23)n1` [Example 1-11, (2R)-1-[6-(5-chloro-1H-pyrrolo[2,3-b]pyridin-3-yl)pyrazin-2-yl]-2-methyl-N-(2,2,2-trifluoroethyl)azetidine-2-carboxamide]: at most 1 nM.
Take `C[C@@H](Nc1cncc(-c2c[nH]c3ncc(Cl)cc23)n1)C(=O)NCCC1CC1` [Example 2-8, N^2-[6-(5-chloro-1H-pyrrolo[2,3-b]-pyridin-3-yl)pyrazin-2-yl]-N-(2-cyclopropylethyl)-D-alaninamide]: the IC50 lay in the range of 10 to 100 nM.
On to `O=C(NCC(F)(F)F)[C@@H]1CC[C@H](Nc2cncc(-c3c[nH]c4ncc(Cl)cc34)n2)C1` [Example 1-3, (1R,3S)-3-{(6-(5-chloro-1H-pyrrolo[2,3-b]pyridin-3-yl)-pyrazin-2-yl]amino}-N-(2,2,2-trifluoroethyl)cyclopentane-carboxamide], for which the IC50 is 1 to 10 nM.
In the case of `C[C@@H](Nc1cncc(-c2c[nH]c3ncc(Cl)cc23)n1)C(=O)NCCc1cn[nH]c1` [Example 2-7, N^2-[6-(5-chloro-1H-pyrrolo[2,3-b]-pyridin-3-yl)pyrazin-2-yl]-N-[2-(1H-pyrazol-4-yl)ethyl]-D-alaninamide], the IC50 lay within 100 to 1000 nM.
Regarding `CC1(C(=O)NCC(F)(F)F)CC1c1cncc(-c2c[nH]c3ncc(Cl)cc23)n1` (stereo not shown) [Example 10-2, 2-[6-(5-chloro-1H-pyrrolo[2,3-b]pyridin-3-yl)pyrazin-2-yl]-1-methyl-N-(2,2,2-trifluoroethyl)cyclopropanecarboxamide], the IC50 lay in the range of 1 to 10 nM.
The same measure, in the same setting: the same measure for `O=C(NCC(F)(F)F)c1cncc(-c2c[nH]c3ncc(Cl)cc23)n1` [Example 7, 6-(5-chloro-1H-pyrrolo[2,3-b]pyridin-3-yl)-N-(2,2,2-trifluoroethyl)pyrazine-2-carboxamide]: 100 to 1000 nM; for `C[C@H](Nc1cncc(-c2c[nH]c3ncc(Cl)cc23)n1)C(=O)N1CC(F)(F)C(F)(F)C1` [Example 2-4, 6-(5-chloro-1H-pyrrolo[2,3-b]-pyridin-3-yl)-N-[(1S)-1-methyl-2-oxo-2-(3,3,4,4-tetrafluoro-pyrrolidin-1-yl)ethyl]pyrazin-2-amine]: 100 to 1000 nM.

The term IC50 denotes the concentration that inhibits the measured activity by half.
